Activity calls are given as the source filed them. The rule behind the calls is not given here.
Columns and labels:
[1] = target: Tyrosine-protein kinase JAK1 (Homo sapiens) (UniProt P23458); experiment: Inhibition of JAK1 JH2 pseudokinase domain (unknown origin) at 10 uM by Ambit Kinomescan binding assay
[2] = target: Cyclin-G-associated kinase (Homo sapiens) (UniProt O14976); experiment: Inhibition of GAK (unknown origin) at 10 uM by Ambit Kinomescan binding assay relative to control
[3] = target: DNA-dependent protein kinase catalytic subunit (Homo sapiens) (UniProt P78527); experiment: Inhibition of PRKDC ATP labeling site harbouring KGGSWIQEINVAEK in human Huh-7 cells at 1 uM by KiNativ Profiling analysis relative to control; type: cell-based
[4] = target: Serine/threonine-protein kinase pim-1 (Homo sapiens) (UniProt P11309); experiment: Inhibition of PIM1 (unknown origin) at 10 uM by Ambit Kinomescan binding assay
[5] = target: Non-receptor tyrosine-protein kinase TYK2 (Homo sapiens) (UniProt P29597); experiment: Inhibition of TYK2 JH2 pseudokinase domain (unknown origin) at 10 uM by Ambit Kinomescan binding assay
[6] = test system: Mast/stem cell growth factor receptor Kit (Homo sapiens), P10721 [V559D,V654A]; experiment: Inhibition of KIT V559D/V654A double mutant (unknown origin) at 10 uM by Ambit Kinomescan binding assay relative to control
[7] = target: Serine/threonine-protein kinase/endoribonuclease IRE1 (Homo sapiens) (UniProt O75460); experiment: Inhibition of IRE1 Lys2 labeling site in human A-375 cells at 5 uM by KiNativ Profiling analysis relative to control; type: cell-based
[8] = target: Glycogen synthase kinase-3 beta (Homo sapiens) (UniProt P49841); experiment: Inhibition of GSK3B (unknown origin) at 10 uM by Ambit Kinomescan binding assay
[9] = target: Rho-associated protein kinase 1 (Homo sapiens) (UniProt Q13464); experiment: Inhibition of ROCK1 in human Huh-7 cells at 1 uM by KiNativ Profiling analysis relative to control; type: cell-based
Sequence of Rho-associated protein kinase 1 (Homo sapiens) (Q13464 2-1354 limits assumed): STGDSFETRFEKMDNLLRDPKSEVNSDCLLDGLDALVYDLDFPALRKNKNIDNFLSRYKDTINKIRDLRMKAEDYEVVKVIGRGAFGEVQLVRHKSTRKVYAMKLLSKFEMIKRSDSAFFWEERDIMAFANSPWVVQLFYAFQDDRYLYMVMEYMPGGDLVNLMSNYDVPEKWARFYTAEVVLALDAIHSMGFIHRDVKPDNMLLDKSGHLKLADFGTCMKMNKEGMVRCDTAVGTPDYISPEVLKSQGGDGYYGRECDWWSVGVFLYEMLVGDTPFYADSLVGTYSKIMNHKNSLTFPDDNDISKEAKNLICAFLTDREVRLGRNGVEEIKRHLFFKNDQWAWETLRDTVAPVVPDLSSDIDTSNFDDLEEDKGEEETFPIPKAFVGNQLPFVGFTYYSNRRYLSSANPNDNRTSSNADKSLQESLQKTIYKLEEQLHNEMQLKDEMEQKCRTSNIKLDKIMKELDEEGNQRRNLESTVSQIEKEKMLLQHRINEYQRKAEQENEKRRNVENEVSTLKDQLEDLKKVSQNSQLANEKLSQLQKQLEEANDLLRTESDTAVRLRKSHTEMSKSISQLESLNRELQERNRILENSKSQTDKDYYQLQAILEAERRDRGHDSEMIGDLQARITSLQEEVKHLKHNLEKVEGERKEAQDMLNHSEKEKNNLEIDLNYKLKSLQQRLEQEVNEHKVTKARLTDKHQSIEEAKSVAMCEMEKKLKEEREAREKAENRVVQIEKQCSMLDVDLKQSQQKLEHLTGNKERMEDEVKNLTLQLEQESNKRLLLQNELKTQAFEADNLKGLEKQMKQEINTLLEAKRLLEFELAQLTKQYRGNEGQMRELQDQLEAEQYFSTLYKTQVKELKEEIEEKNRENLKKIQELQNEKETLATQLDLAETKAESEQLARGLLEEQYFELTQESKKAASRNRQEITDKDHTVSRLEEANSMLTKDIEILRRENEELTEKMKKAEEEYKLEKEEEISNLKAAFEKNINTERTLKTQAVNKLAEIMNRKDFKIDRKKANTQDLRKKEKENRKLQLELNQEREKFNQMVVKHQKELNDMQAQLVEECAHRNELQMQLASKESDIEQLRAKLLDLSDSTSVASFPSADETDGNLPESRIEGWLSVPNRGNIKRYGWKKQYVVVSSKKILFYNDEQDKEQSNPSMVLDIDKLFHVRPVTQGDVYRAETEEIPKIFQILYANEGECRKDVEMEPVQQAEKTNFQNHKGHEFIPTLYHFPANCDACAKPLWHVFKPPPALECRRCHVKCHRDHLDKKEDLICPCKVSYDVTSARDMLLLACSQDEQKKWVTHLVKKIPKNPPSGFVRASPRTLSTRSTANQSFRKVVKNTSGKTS

[10] = target: Ribosomal protein S6 kinase alpha-1 (Homo sapiens) (UniProt Q15418); experiment: Inhibition of RSK1 domain1 ACT labeling site in human A-375 cells at 5 uM by KiNativ Profiling analysis relative to control; type: cell-based
[11] = target: Proto-oncogene tyrosine-protein kinase Src (Homo sapiens, UniProt P12931); experiment: Inhibition of SRC ACT labeling site in human A-375 cells at 0.05 uM by KiNativ Profiling analysis relative to control; type: cell-based
[12] = target: Phosphatidylinositol 4-kinase beta (Homo sapiens) (UniProt Q9UBF8); experiment: Inhibition of PI4KB ATP labeling site harbouring VPHTQAVVLNSKDKAPYLIYVEVLECENFDTTSVPAR in human A-375 cells at 5 uM by KiNativ Profiling analysis relative to control; type: cell-based
[13] = target: Serine/threonine-protein kinase SIK1 (Homo sapiens) (UniProt P57059); experiment: Inhibition of SIK (unknown origin) at 1 uM by Ambit Kinomescan binding assay relative to control
[14] = target: Serine/threonine-protein kinase SIK2 (Homo sapiens) (UniProt Q9H0K1); experiment: Inhibition of SIK2 (unknown origin) at 1 uM by Ambit Kinomescan binding assay relative to control
Sequence of Serine/threonine-protein kinase SIK2 (Homo sapiens) (Q9H0K1 whole entry, looked up): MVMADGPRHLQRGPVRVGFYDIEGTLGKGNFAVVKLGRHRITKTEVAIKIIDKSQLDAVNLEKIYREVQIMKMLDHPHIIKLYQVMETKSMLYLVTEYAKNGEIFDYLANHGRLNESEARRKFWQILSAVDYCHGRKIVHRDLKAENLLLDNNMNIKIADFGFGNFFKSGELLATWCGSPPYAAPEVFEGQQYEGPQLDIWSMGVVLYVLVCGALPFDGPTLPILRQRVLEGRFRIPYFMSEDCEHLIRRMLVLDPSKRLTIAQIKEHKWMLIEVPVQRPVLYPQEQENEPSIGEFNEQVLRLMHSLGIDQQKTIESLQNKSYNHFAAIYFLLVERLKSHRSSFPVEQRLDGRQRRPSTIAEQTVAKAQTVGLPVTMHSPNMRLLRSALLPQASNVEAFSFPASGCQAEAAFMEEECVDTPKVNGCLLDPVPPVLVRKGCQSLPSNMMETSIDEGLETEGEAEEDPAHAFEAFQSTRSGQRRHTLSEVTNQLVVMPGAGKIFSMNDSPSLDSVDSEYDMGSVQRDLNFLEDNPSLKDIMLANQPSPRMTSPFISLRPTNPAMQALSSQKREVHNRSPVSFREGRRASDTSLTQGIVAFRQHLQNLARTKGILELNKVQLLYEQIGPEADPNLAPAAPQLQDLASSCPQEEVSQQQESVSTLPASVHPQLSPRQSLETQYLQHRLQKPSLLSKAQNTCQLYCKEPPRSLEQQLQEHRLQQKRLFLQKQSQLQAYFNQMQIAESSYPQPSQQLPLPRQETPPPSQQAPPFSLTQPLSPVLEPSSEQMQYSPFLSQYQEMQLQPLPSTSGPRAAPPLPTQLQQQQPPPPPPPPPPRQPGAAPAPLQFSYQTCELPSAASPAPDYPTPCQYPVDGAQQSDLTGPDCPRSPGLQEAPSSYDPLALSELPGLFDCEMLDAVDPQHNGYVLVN

[15] = target: Serine/threonine-protein kinase 38-like (Homo sapiens) (UniProt Q9Y2H1); experiment: Inhibition of NDR2 Lys2 labeling site in human A-375 cells at 0.5 uM by KiNativ Profiling analysis relative to control; type: cell-based
Sequence of Serine/threonine-protein kinase 38-like (Homo sapiens) (Q9Y2H1 2-464 limits assumed): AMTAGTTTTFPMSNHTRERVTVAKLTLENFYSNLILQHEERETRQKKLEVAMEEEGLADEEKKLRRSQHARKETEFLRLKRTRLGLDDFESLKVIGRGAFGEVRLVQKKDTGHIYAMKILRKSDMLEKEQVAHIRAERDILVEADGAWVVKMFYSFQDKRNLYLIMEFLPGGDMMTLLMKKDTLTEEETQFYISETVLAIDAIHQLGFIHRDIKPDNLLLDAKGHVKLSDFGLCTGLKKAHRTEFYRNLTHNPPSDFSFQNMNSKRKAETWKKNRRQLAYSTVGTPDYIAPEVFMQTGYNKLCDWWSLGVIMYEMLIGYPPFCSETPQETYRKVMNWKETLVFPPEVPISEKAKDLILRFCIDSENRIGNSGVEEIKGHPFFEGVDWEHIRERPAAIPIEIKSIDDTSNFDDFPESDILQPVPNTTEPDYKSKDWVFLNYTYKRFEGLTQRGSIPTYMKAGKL

[16] = target: Ephrin type-A receptor 6 (Homo sapiens) (UniProt Q9UF33); experiment: Inhibition of EPHA6 (unknown origin) at 1 uM by Ambit Kinomescan binding assay relative to control; values are per cent of control
Sequence of Ephrin type-A receptor 6 (Homo sapiens) (Q9UF33 whole entry): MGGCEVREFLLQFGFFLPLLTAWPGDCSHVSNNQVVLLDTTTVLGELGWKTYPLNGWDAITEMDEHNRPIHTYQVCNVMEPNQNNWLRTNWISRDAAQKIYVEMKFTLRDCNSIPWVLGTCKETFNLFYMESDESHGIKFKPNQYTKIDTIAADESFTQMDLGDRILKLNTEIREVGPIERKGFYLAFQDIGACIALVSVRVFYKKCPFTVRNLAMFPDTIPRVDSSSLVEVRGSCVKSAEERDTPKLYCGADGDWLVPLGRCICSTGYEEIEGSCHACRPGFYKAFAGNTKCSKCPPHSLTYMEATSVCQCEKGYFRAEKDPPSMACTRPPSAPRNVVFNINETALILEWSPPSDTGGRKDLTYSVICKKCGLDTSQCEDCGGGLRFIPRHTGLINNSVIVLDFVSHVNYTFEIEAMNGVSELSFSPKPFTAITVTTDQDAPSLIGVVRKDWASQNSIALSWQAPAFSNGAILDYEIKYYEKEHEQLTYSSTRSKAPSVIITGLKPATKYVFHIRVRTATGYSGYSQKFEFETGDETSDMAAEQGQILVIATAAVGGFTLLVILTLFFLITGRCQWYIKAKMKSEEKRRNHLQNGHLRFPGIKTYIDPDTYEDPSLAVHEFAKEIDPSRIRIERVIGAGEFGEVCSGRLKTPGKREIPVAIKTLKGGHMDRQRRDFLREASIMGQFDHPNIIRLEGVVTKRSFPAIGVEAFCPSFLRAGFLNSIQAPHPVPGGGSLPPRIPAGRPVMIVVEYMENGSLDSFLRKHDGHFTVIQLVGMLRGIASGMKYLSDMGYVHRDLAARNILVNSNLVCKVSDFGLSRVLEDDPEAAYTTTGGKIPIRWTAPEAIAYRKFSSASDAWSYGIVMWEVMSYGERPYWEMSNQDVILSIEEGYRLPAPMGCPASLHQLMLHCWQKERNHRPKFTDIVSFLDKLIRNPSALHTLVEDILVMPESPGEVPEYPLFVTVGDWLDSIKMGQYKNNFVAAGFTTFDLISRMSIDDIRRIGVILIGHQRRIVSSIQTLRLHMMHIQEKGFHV

[17] = target: Tyrosine-protein kinase receptor Tie-1 (Homo sapiens) (UniProt P35590); experiment: Inhibition of TIE1 (unknown origin) at 1 uM by Ambit Kinomescan binding assay relative to control
[18] = target: Rho-associated protein kinase 2 (Homo sapiens) (UniProt O75116); experiment: Inhibition of ROCK2 Lys2 labeling site in human Huh-7 cell lysate at 1 uM by KiNativ Profiling analysis relative to control; type: subcellular
[19] = target: T1, Phosphatidylinositol 5-phosphate 4-kinase type-2 gamma (Homo sapiens) (UniProt Q8TBX8); experiment: Inhibition of PIP4K2C ATP labeling site harbouring TLVIKEVSSEDIADMHSNLSNYHQYIVK in human Huh-7 cell lysate at 1 uM by KiNativ Profiling analysis relative to control; type: subcellular
T1 sequence (whole entry): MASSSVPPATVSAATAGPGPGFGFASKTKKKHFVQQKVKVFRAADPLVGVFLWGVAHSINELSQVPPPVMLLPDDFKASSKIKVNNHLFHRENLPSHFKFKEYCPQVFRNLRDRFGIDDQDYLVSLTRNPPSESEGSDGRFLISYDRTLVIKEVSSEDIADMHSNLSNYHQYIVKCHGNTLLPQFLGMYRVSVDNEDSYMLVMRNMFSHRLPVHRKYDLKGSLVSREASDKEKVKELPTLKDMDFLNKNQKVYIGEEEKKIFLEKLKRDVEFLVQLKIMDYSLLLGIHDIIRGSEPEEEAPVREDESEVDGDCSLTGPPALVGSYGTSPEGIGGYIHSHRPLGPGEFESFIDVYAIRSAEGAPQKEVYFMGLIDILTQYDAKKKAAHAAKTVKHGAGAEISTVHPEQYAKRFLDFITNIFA

[20] = target: Mitogen-activated protein kinase 3 (Homo sapiens) (UniProt P27361); experiment: Inhibition of Erk1 Lys2 labeling site harbouring DLKPSNLLINTTCDLK in human Huh-7 cell lysate at 1 uM by KiNativ Profiling analysis relative to control; type: subcellular
[21] = target: Tyrosine-protein kinase CSK (Homo sapiens, UniProt P41240); experiment: Inhibition of CSK ACT labeling site harbouring VSDFGLTKEASSTQDTGK in human Huh-7 cells at 1 uM by KiNativ Profiling analysis relative to control; type: cell-based
[22] = target: T2, Acylglycerol kinase, mitochondrial (Homo sapiens) (UniProt Q53H12); experiment: Inhibition of AGK ATP labeling site in human Huh-7 cell lysate at 1 uM by KiNativ Profiling analysis relative to control; type: subcellular
T2 sequence (whole entry): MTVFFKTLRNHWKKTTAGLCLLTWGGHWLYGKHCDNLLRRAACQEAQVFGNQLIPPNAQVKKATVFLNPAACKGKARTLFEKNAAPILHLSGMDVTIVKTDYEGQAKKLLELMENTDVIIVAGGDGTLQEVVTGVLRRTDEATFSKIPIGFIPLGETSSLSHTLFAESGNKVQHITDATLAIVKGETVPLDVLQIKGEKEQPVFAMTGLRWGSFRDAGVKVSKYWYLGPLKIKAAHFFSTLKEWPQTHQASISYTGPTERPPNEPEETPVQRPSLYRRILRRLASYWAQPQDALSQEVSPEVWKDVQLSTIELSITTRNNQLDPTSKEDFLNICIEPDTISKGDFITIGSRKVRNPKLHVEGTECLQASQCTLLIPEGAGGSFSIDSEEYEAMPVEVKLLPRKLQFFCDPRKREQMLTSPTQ

[23] = Inhibition of KHS1 Lys1 labeling site in human Huh-7 cells at 1 uM by KiNativ Profiling analysis relative to control; details: condition cancer

Sequence of Cyclin-G-associated kinase (Homo sapiens) (O14976 whole entry): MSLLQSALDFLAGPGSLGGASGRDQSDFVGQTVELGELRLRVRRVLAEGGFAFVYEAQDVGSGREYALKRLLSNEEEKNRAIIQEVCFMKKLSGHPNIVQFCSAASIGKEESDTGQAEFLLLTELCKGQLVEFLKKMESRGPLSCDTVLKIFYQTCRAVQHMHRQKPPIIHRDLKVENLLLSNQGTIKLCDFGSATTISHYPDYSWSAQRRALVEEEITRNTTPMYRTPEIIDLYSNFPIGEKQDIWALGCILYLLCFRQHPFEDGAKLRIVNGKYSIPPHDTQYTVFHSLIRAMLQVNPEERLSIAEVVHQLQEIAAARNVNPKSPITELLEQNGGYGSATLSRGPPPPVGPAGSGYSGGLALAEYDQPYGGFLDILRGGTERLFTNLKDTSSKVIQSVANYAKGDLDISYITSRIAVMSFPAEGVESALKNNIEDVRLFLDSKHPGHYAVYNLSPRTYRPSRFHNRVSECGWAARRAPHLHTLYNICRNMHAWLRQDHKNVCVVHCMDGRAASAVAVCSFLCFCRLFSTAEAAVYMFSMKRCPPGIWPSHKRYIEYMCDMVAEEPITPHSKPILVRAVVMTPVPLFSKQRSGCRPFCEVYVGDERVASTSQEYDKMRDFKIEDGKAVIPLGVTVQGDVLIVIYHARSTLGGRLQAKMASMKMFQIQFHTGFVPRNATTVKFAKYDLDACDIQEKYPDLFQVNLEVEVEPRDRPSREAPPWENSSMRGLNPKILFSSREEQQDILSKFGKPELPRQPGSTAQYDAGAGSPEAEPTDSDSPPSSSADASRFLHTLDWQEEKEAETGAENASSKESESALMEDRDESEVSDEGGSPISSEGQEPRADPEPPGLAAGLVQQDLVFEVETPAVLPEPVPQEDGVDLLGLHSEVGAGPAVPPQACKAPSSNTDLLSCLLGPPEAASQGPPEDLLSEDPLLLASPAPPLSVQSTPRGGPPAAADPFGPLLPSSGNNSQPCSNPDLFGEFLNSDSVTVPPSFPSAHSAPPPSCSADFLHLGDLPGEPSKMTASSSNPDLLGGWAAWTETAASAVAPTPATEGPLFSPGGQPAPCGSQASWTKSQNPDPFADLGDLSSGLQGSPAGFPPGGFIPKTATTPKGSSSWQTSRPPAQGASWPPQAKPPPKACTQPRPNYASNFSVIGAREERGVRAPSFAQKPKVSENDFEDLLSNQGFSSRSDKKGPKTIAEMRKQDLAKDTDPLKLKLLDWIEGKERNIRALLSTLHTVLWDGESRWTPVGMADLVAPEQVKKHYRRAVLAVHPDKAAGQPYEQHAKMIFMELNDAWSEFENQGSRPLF

CCN1CCN(Cc2ccc(NC(=O)c3ccc(C)c(Oc4ccnc5[nH]ccc45)c3)cc2C(F)(F)F)CC1
inhibition [1]: inactive | inhibition [2]: 31% | inhibition [3]: 0.9% | inhibition [4]: inactive | inhibition [5]: inactive | inhibition [6]: 2.7% | inhibition [7]: -5.7% | inhibition [8]: inactive | inhibition [9]: -5.5%

CCN1CCN(Cc2ccc(NC(=O)c3ccc(C)c(/C=C/c4cnc5[nH]ccc5c4OC)c3)cc2C(F)(F)F)CC1
inhibition [10]: 14.7% | inhibition [11]: 38.9% | inhibition [12]: 14.1% | inhibition [13]: 2.1% | inhibition [14]: 26% | inhibition [15]: 13.4% | residual activity [16]: 29% | inhibition [17]: 0.95%

CNc1cc(Oc2cc(C(=O)Nc3cc(N4CCN(C)CC4)cc(C(F)(F)F)c3)ccc2C)ncn1
inhibition [18]: 2.7% | inhibition [19]: -3.6% | inhibition [20]: -4.1% | inhibition [21]: 16.6% | inhibition [22]: 3.4% | inhibition at 1 µM [23]: -10.3%
